Test results from ChEMBL document CHEMBL1159053, “Synthesis and antifungal activities in vitro of novel pyrazino [2,1-a] isoquinolin derivatives” (2010).
In brackets after ≈: the same amount, converted by molar mass.

Legend:
Type in all cases: functional
Candida albicans = assay: Antifungal activity against Candida albicans by serial dilution method
Cryptococcus neoformans = assay: Antifungal activity against Cryptococcus neoformans by serial dilution method
Nannizzia gypsea = assay: Antifungal activity against Microsporum gypseum by serial dilution method
Aspergillus fumigatus = assay: Antifungal activity against Aspergillus fumigatus by serial dilution method
Trichophyton rubrum = assay: Antifungal activity against Trichophyton rubrum by serial dilution method

Row | SMILES | MIC80 (Candida albicans) [µg/mL] | MIC80 (Cryptococcus neoformans) [µg/mL] | MIC80 (Nannizzia gypsea) [µg/mL] | MIC80 (Aspergillus fumigatus) [µg/mL] | MIC80 (Trichophyton rubrum) [µg/mL]
1 | CCCCCCCCN1CCN2CCc3cc(OC)c(OC)cc3C2C1 (stereo not given) | 32 (≈ 88.8 µM) | 8 (≈ 22.2 µM) | 4 (≈ 11.1 µM) | 8 (≈ 22.2 µM) | 16 (≈ 44.4 µM)
2 | CCCCN1CC(=O)N2CCc3cc(OC)c(OC)cc3C2C1 (stereo not given) | > 64 | 16 (≈ 50.2 µM) | > 64 | > 64 | > 64
3 | CCCCCCCCCCCCN1CCN2CCc3cc(OC)c(OC)cc3C2C1 (stereo not given) | > 64 | 16 (≈ 38.4 µM) | 32 (≈ 76.8 µM) | > 64 | > 64
4 | CCCCCCCCCCCCN1CC(=O)N2CCc3ccc(F)cc3C2C1 (stereo not given) | > 64 | > 64 | 64 (≈ 165 µM) | 32 (≈ 82.4 µM) | 64 (≈ 165 µM)
5 | CCCCN1CCN2CCc3cc(O)c(O)cc3C2C1 (stereo not given) | > 64 | 4 (≈ 14.5 µM) | > 64 | > 64 | > 64
6 | OC(Cn1cncn1)(Cn1cncn1)c1ccc(F)cc1F [FLUCONAZOLE] | 2 (≈ 6.53 µM) | 4 (≈ 13.1 µM) | 2 (≈ 6.53 µM) | > 64 | 32 (≈ 104 µM)
7 | CCCCCCCCN1CCN2CCc3cc(O)c(O)cc3C2C1 (stereo not given) | 16 (≈ 48.1 µM) | 2 (≈ 6.02 µM) | 32 (≈ 96.2 µM) | 64 (≈ 192 µM) | 16 (≈ 48.1 µM)
8 | CCCCN1CC(=O)N2CCc3ccc(F)cc3C2C1 (stereo not given) | > 64 | 32 (≈ 116 µM) | > 64 | > 64 | 64 (≈ 232 µM)
9 | CCCCCCCCCCCCN1CCN2CCc3ccc(F)cc3C2C1 (stereo not given) | > 64 | 64 (≈ 171 µM) | 4 (≈ 10.7 µM) | > 64 | 64 (≈ 171 µM)
10 | CCCCCCCCCCN1CCc2cc(O)c(O)cc2C1 | 64 (≈ 210 µM) | 16 (≈ 52.4 µM) | 16 (≈ 52.4 µM) | 64 (≈ 210 µM) | 32 (≈ 105 µM)
11 | CCCCCCCCN1CCN2CCc3ccc(F)cc3C2C1 (stereo not given) | 16 (≈ 50.2 µM) | 4 (≈ 12.6 µM) | 4 (≈ 12.6 µM) | 32 (≈ 100 µM) | 8 (≈ 25.1 µM)
12 | CCCCCCCCCCCCN1CC(=O)N2CCc3cc(OC)c(OC)cc3C2C1 (stereo not given) | > 64 | 32 (≈ 74.3 µM) | 64 (≈ 149 µM) | > 64 | > 64
13 | CCCCN1CCN2CCc3cc(OC)c(OC)cc3C2C1 (stereo not given) | > 64 | > 64 | > 64 | > 64 | > 64
14 | CCCCCCCCCN1CC(=O)N2CCc3cc(OC)c(OC)cc3C2C1 (stereo not given) | 64 (≈ 165 µM) | 4 (≈ 10.3 µM) | 2 (≈ 5.15 µM) | 32 (≈ 82.4 µM) | 32 (≈ 82.4 µM)
15 | CCCCCCCCN1CC(=O)N2CCc3ccc(F)cc3C2C1 (stereo not given) | > 64 | 16 (≈ 48.1 µM) | 16 (≈ 48.1 µM) | 32 (≈ 96.3 µM) | 16 (≈ 48.1 µM)
16 | CCCCCCCCN1CC(=O)N2CCc3cc(OC)c(OC)cc3C2C1 (stereo not given) | 16 (≈ 42.7 µM) | 8 (≈ 21.4 µM) | 8 (≈ 21.4 µM) | 64 (≈ 171 µM) | 32 (≈ 85.4 µM)
17 | CCCCCCCCCN1CCN2CCc3cc(OC)c(OC)cc3C2C1 (stereo not given) | 32 (≈ 85.4 µM) | 4 (≈ 10.7 µM) | 2 (≈ 5.34 µM) | 8 (≈ 21.4 µM) | 8 (≈ 21.4 µM)
18 | CCCCCCCCCN1CCN2CCc3ccc(F)cc3C2C1 (stereo not given) | 8 (≈ 24.1 µM) | 4 (≈ 12 µM) | 2 (≈ 6.01 µM) | 16 (≈ 48.1 µM) | 8 (≈ 24.1 µM)
19 | CCCCN1CCN2CCc3ccc(F)cc3C2C1 (stereo not given) | 64 (≈ 244 µM) | > 64 | 4 (≈ 15.2 µM) | > 64 | > 64
20 | CCCCCCCCCN1CCN2CCc3cc(O)c(O)cc3C2C1 (stereo not given) | 8 (≈ 23.1 µM) | 4 (≈ 11.5 µM) | 8 (≈ 23.1 µM) | 64 (≈ 185 µM) | 8 (≈ 23.1 µM)
21 | CCCCCCCCCCCCN1CCN2CCc3cc(O)c(O)cc3C2C1 (stereo not given) | 64 (≈ 165 µM) | 16 (≈ 41.2 µM) | 16 (≈ 41.2 µM) | 64 (≈ 165 µM) | 16 (≈ 41.2 µM)
22 | CCCCCCCCCN1CC(=O)N2CCc3ccc(F)cc3C2C1 (stereo not given) | 32 (≈ 92.4 µM) | 2 (≈ 5.77 µM) | 0.5 (≈ 1.44 µM) | 16 (≈ 46.2 µM) | 4 (≈ 11.5 µM)
